In ChEMBL document CHEMBL1201862, “PubChem BioAssay data set” (2004):
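Results reflect a 48-hour exposure of cells in 96-well plates to compound at five concentrations. GI50 is the concentration that inhibits growth by half.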 Calls of active or inactive are those of the source. Cut-off read from the data, not from the text of the source: active = GI50 up to about 1.1 µM and inactive = higher.

Experiments:
Assay in all cases: inhibition of tumour cell growth, NCI panel, 48 h
OVCAR-3 = system: OVCAR-3
UACC-257 = system: UACC-257
K562 = system: K562
SF-268 = system: SF-268
UO-31 = system: UO-31
HT-29 = system: HT-29
KM12 = system: KM12
OVCAR-8 = system: OVCAR-8
SK-MEL-5 = system: SK-MEL-5
A498 = system: A498
HCT-116 = system: HCT-116
SK-OV-3 = system: SK-OV-3
U-251 = system: U-251
SK-MEL-2 = system: SK-MEL-2
DMS-114 = system: DMS-114
HOP-92 = system: HOP-92
HCT-15 = system: HCT-15
T47D = system: T47D
Hs-578T = system: Hs-578T
NCI/ADR-RES = system: NCI/ADR-RES

| Compound | GI50 (OVCAR-3) | GI50 (UACC-257) | GI50 (K562) | GI50 (SF-268) | GI50 (UO-31) | GI50 (HT-29) | GI50 (KM12) | GI50 (OVCAR-8) | GI50 (SK-MEL-5) | GI50 (A498) | GI50 (HCT-116) | GI50 (SK-OV-3) | GI50 (U-251) | GI50 (SK-MEL-2) | GI50 (DMS-114) | GI50 (HOP-92) | GI50 (HCT-15) [µM] | GI50 (T47D) | GI50 (Hs-578T) | GI50 (NCI/ADR-RES) |
| --- | --- | --- | --- | --- | --- | --- | --- | --- | --- | --- | --- | --- | --- | --- | --- | --- | --- | --- | --- | --- |
| O=c1/c(=C/c2c(O)ccc3ccccc23)sc2nc3ccccc3n12 | > 100 µM (inactive) | > 100 µM (inactive) | > 100 µM (inactive) | > 100 µM (inactive) | > 100 µM (inactive) | > 100 µM (inactive) | > 100 µM (inactive) | > 100 µM (inactive) | > 100 µM (inactive) | > 100 µM (inactive) | > 100 µM (inactive) | > 100 µM (inactive) | > 100 µM (inactive) | > 100 µM (inactive) | > 100 µM (inactive) | > 100 µM (inactive) | > 100 | – | – | – |
| COc1cccc2ccc3c(c12)C(=O)OC31CCc2c(C)cccc21 (stereo not given) | 10.3 µM (inactive) | 23.4 µM (inactive) | 7.91 µM (inactive) | 30.3 µM (inactive) | 9.16 µM (inactive) | 11.8 µM (inactive) | 23.7 µM (inactive) | 15.8 µM (inactive) | 10.2 µM (inactive) | 7.41 µM (inactive) | 8.49 µM (inactive) | > 46.5 µM (inactive) | 23.2 µM (inactive) | 32.1 µM (inactive) | 8.67 µM (inactive) | 11.2 µM (inactive) | 10.3 | 32.4 µM (inactive) | 38.5 µM (inactive) | 13.4 µM (inactive) |
| C=C1C(C(=O)O)C1C(=O)O (stereo not given) | – | > 100 µM (inactive) | > 100 µM (inactive) | > 100 µM (inactive) | > 100 µM (inactive) | > 100 µM (inactive) | > 100 µM (inactive) | > 100 µM (inactive) | > 100 µM (inactive) | > 100 µM (inactive) | > 100 µM (inactive) | > 100 µM (inactive) | > 100 µM (inactive) | > 100 µM (inactive) | > 100 µM (inactive) | > 100 µM (inactive) | > 100 | – | – | – |
| CCOc1cc(/C=C/C=C/C=C/c2ccc(N(C)C)cc2)[s+]c2ccccc12 | 14.4 µM (inactive) | 30.7 µM (inactive) | 20.9 µM (inactive) | 13.5 µM (inactive) | 4.58 µM (inactive) | 28.7 µM (inactive) | 10.1 µM (inactive) | 27.6 µM (inactive) | 24 µM (inactive) | > 100 µM (inactive) | 17.7 µM (inactive) | > 100 µM (inactive) | 31.8 µM (inactive) | 37.3 µM (inactive) | 5.61 µM (inactive) | 25.1 µM (inactive) | 26.4 | – | – | – |
| COCCNC(=O)C1C(=O)C(=O)N(CCOC)C1=O (stereo not given) | > 100 µM (inactive) | > 100 µM (inactive) | > 100 µM (inactive) | > 100 µM (inactive) | > 100 µM (inactive) | > 100 µM (inactive) | – | > 100 µM (inactive) | > 100 µM (inactive) | > 100 µM (inactive) | > 100 µM (inactive) | > 100 µM (inactive) | > 100 µM (inactive) | > 100 µM (inactive) | > 100 µM (inactive) | > 100 µM (inactive) | > 100 | – | – | – |
| CC(C)CC(NC(=O)OC(C)(C)C)C(=O)Nc1ccc(Nc2nc(F)nc(-c3c4ccccc4c4n3CCS4)n2)cc1 (stereo not given) | 20.3 µM (inactive) | 23.6 µM (inactive) | 26.8 µM (inactive) | 31.4 µM (inactive) | 19.7 µM (inactive) | 19.2 µM (inactive) | 26.7 µM (inactive) | 22 µM (inactive) | 23.7 µM (inactive) | 26.2 µM (inactive) | 23.5 µM (inactive) | 18.8 µM (inactive) | 18.8 µM (inactive) | 18.2 µM (inactive) | 20.1 µM (inactive) | 18.8 µM (inactive) | 16.3 | – | – | – |
| COc1ccc2c(c1)CCN1C3=C(CCC3)C(=O)C[C@@H]21 | > 100 µM (inactive) | > 100 µM (inactive) | > 100 µM (inactive) | > 100 µM (inactive) | 43.6 µM (inactive) | > 100 µM (inactive) | > 100 µM (inactive) | > 100 µM (inactive) | > 100 µM (inactive) | 62.2 µM (inactive) | > 100 µM (inactive) | > 100 µM (inactive) | > 100 µM (inactive) | > 100 µM (inactive) | 81.7 µM (inactive) | > 100 µM (inactive) | > 100 | – | – | – |
| CSc1ncnc2c1CCN2 | 2.87 µM (inactive) | 3.83 µM (inactive) | 4.93 µM (inactive) | > 10 µM (inactive) | 50.6 µM (inactive) | 7.96 µM (inactive) | 5.35 µM (inactive) | > 10 µM (inactive) | 2.92 µM (inactive) | – | 6.07 µM (inactive) | > 10 µM (inactive) | – | 5.86 µM (inactive) | > 100 µM (inactive) | 3.96 µM (inactive) | > 100 | > 10 µM (inactive) | 4.51 µM (inactive) | > 10 µM (inactive) |
| CCOC(=O)C1Sc2ccccc2N=C1C (stereo not given) | > 100 µM (inactive) | > 100 µM (inactive) | > 100 µM (inactive) | > 100 µM (inactive) | > 100 µM (inactive) | > 100 µM (inactive) | > 100 µM (inactive) | > 100 µM (inactive) | – | > 100 µM (inactive) | > 100 µM (inactive) | – | > 100 µM (inactive) | > 100 µM (inactive) | > 100 µM (inactive) | > 100 µM (inactive) | > 100 | – | – | – |
| COC(=O)C12C3C4C5(C(=O)OC)C(C1C35C(=O)N(C(C)C)C(C)C)C42C(=O)N(C(C)C)C(C)C (stereo not given) | > 50 µM (inactive) | > 50 µM (inactive) | > 47.4 µM (inactive) | > 50 µM (inactive) | > 50 µM (inactive) | > 50 µM (inactive) | > 50 µM (inactive) | > 50 µM (inactive) | > 50 µM (inactive) | > 50 µM (inactive) | 14.7 µM (inactive) | > 50 µM (inactive) | > 50 µM (inactive) | > 50 µM (inactive) | > 29.9 µM (inactive) | > 50 µM (inactive) | > 23.3 | – | – | – |
| COc1cc2c(cc1O)[C@H](C)C(c1ccccc1OC)O2 (stereo not given in full) | 6.53 µM (inactive) | 18.2 µM (inactive) | 2.81 µM (inactive) | 5.75 µM (inactive) | 8.57 µM (inactive) | 6.7 µM (inactive) | 3.87 µM (inactive) | 10.3 µM (inactive) | 3.16 µM (inactive) | 4.49 µM (inactive) | 3.86 µM (inactive) | 3.01 µM (inactive) | 2.34 µM (inactive) | 3.05 µM (inactive) | 2.8 µM (inactive) | 8.2 µM (inactive) | 3.34 | – | – | – |
| O=C(Cc1ccccc1F)NC1=C(Cl)C(=O)c2ccccc2C1=O | 0.621 µM (active) | – | 0.611 µM (active) | – | 0.723 µM (active) | 5.75 µM (inactive) | 0.524 µM (active) | 2.16 µM (inactive) | 1.06 µM (active) | 4.69 µM (inactive) | 0.459 µM (active) | 3.04 µM (inactive) | 0.65 µM (active) | 0.652 µM (active) | 0.21 µM (active) | 0.887 µM (active) | 0.54 | 1.87 µM (inactive) | 0.656 µM (active) | 1.95 µM (inactive) |
| COc1cc2ccc(=O)oc2cc1O [SCOPOLETIN] | 69.8 µM (inactive) | 71.9 µM (inactive) | 152 µM (inactive) | 92.3 µM (inactive) | 38 µM (inactive) | 161 µM (inactive) | 36.1 µM (inactive) | 52.1 µM (inactive) | 78 µM (inactive) | 80.4 µM (inactive) | 56.4 µM (inactive) | 94.2 µM (inactive) | 24.8 µM (inactive) | 109 µM (inactive) | 28.5 µM (inactive) | 206 µM (inactive) | 25.1 | > 100 µM (inactive) | > 100 µM (inactive) | 56.2 µM (inactive) |
